Reference: US5985835A, “Desmopressin for nocturia, incontinence and enuresis” (priority 1997, dated 1999)
Where two headings read alike, the source gives them in different places.

Columns and labels:
Assay type in all cases: in vivo, human
[1] = tested on: elderly persons with increased nocturnal diuresis and decreased ADH secretion; conditions: for Diuresis-day: 08-20 h; for Diuresis-night: 20-08 h
Description: They had no cardiac or renal disease or diabetes nor were they receiving diuretics. […] Intravenous specimens for the determination of ADH and NAP were frozen at […]. Plasma ADH was measured as arginine vasopressin by radioimmunoassay after extraction with ethanol. The reference range for plasma ADH was 1-5 pmol 1^-1 with an interassay variability of 15.1% at 0.9 pmol 1^-1 and 6.3% at 1.25 pmol 1^-1. Their nocturnal diuresis had decreased during desmopressin treatment on two successive days. After an evaluation of this study the participants were invited to take part in a two-month treatment with desmopressin ([…]®) 40 μg, given as an intranasal aerosol at 20.00 h. […] No changes in their way of life and no restriction in fluid intake was prescribed. The study was carried out after one and two months of treatment and one month after the treatment. […] Mean values of diuresis and micturitions for the 12-hour periods were calculated (Table 2). At these times also a questionnaire with 12 questions about general wellbeing and sleep was filled in (Table 1). The statistical method used a mean value ± standard deviation. The paired numerical data were analyzed with the 2-sided Student's t-test. Non-numerical data were analyzed with the x'-test.

[2] = tested on: patients 60-74 years of age with increased nocturnal frequency due to nocturnal polyuria
Description: This example provides efficacy and safety data for oral desmopressin in the treatment of increased frequency due to nocturnal polyuria in the elderly. The study started with a run-in week to establish baseline. An open dose titration, one week each of 0.1 mg, 0.2 mg and 0.4 mg, was performed and followed by a wash-out of 1-2 weeks. Then followed the double-blind, placebo controlled, cross-over part of the study using the dose selected in the dose titration. Placebo and active treatment were given for 14 days each in a randomized order. […] The diagnosis and main criteria for inclusion was a healthy adult patient between 60-74 years of age suffering from increased nocturnal frequency (≥2 nocturnal voids) and a nocturnal urinary output ≥0.9 ml/min. The desmopressin used for the study was […]®, 0.1 mg and 0.2 mg tablets. […] Study duration, including run-in and wash-out periods, was 9 weeks. The criteria for evaluation were: 1. Efficacy: the change in nocturnal diuresis (ml/min), nocturnal micturition episodes and 24-hour diuresis. 2. Safety: changes from baseline in blood pressure, S-sodium, ankle circumference and bodyweight. Incidence of adverse events. The efficacy endpoints during the double blind part of the study were subjected to statistical analysis with an ANOVA model. Sequence effect was tested with the within mean square in the ANOVA. The residuals obtained were plotted against predicted values, normal plots were also produced. The plots were examined for relationship between variance and mean non-normality. Shapiro-Wilks test was performed to assist in these assessments. The difference in effect is presented in 95% confidence intervals for least square means, placebo versus desmopressin. All tests performed used a significance level of α=5%.

[3] = tested on: elderly persons with increased nocturnal diuresis; experiment: Pilot study of desmopressin treatment during 48 hours in elderly persons with increased nocturnal diuresis; conditions: desmopressin treatment on two successive days
Description: ADH levels were studied in a group of elderly persons who had increased nocturnal diuresis. The levels generally were very low and a pilot study was done to determine the effect of desmopressin treatment during a period of 48 hours. Their nocturnal diuresis had decreased during desmopressin treatment on two successive days. After an evaluation of this study the participants were invited to take part in a two-month treatment with desmopressin ([…]®) 40 μg, given as an intranasal aerosol at 20.00 h. The tests consisted of 7 men (aged 72±4 years) and 14 women (aged 73±6 years). No changes in their way of life and no restriction in fluid intake was prescribed. The study was carried out after one and two months of treatment and one month after the treatment.

[4] = men, 1 month of 40 μg intranasal
[5] = men, 2 months of 40 μg intranasal
[6] = men, 3 months (one month after treatment)
[7] = women, 1 month of 40 μg intranasal
[8] = women, 2 months of 40 μg intranasal
[9] = women, 3 months (one month after treatment)
[10] = oral tablets, titrated dose 0.1-0.4 mg, 14 days, statistically significant

In the case of NC(=O)CC[C@@H]1NC(=O)[C@H](Cc2ccccc2)NC(=O)[C@H](Cc2ccc(O)cc2)NC(=O)CCSSC[C@@H](C(=O)N2CCC[C@H]2C(=O)N[C@H](CCCN=C(N)N)C(=O)NCC(N)=O)NC(=O)[C@H](CC(N)=O)NC1=O [Desmopressin, 1-deamino-8-D-arginine vasopressin], the “Number of women who reduced nocturnal diuresis by less than 400 ml” value ([1]; after one month) is reported as 9 women, the “Number of women who reduced nocturnal diuresis by less than 400 ml” value ([1]; after two months) is reported as 7 women and the “Total 24-hour diuresis” value ([1]; during the study) is reported as “more or less unchanged”. The “Decrease in average diuresis during the night, women versus men” value ([1]; during the treatment) was “twice as large in women as in men”, the “Diuresis during the daytime” value ([1]; during treatment) was “changed insignificantly” and the Body weight ([1]; in vivo) was “did not change”. For the same molecule, the Potassium in serum ([1]; in vivo) was “did not change”, the Sodium in serum ([1]; in vivo) was “did not change” and the Diuresis-day/night ([1]; men, 0 (before treatment)) was 0.67 ± 0.20. The “No. of micturitions - night” value ([1]; men, 0 (before treatment)) was 4.3 ± 1.2, the Diuresis-day ([1]; men, 0 (before treatment), mean ± SD) was 511 ± 85 mL and the Diuresis-night ([1]; men, 0 (before treatment)) was 763 ± 42 mL. The “Diuresis-day Deviation from initial value %” value ([1]; men, 1 month) was -9%, the Diuresis-day/night ([1]; men, 1 month) was 0.83 ± 0.28 and the “Diuresis-night Deviation from initial value %” value ([1]; men, 1 month) was -21%. For the same molecule, the “No. of micturitions - night” value ([1]; men, 1 month) was 3.8 ± 1.7, the Diuresis-day [1, 4] was 465 ± 72 mL and the Diuresis-night [1, 4] was 603 ± 178 mL. For the same molecule, the “Diuresis-day Deviation from initial value %” value ([1]; men, 2 months) was 2%, the Diuresis-day/night ([1]; men, 2 months) was 0.91 ± 0.29 and the “Diuresis-night Deviation from initial value %” value ([1]; men, 2 months) was -20%. For the same molecule, the “No. of micturitions - night” value ([1]; men, 2 months) was 4.5 ± 2.0, the Diuresis-day [1, 5] was 524 ± 117 mL and the Diuresis-night [1, 5] was 612 ± 174 mL. The “Diuresis-day Deviation from initial value %” value [1, 6] was -14%, the Diuresis-day/night [1, 6] was 0.66 ± 0.26 and the “Diuresis-night Deviation from initial value %” value [1, 6] was -6%. For the same molecule, the “No. of micturitions - night” value [1, 6] was 4.1 ± 1.6, the Diuresis-day [1, 6] was 441 ± 68 mL and the Diuresis-night [1, 6] was 717 ± 168 mL. For the same molecule, the “Reduction of nocturnal diuresis (all the men)” value ([1]; men, after both one and two months) was “less than 400 ml”, the “Decrease in nocturnal diuresis from the initial value” (“Decrease in nocturnal diuresis” for short) ([1]; men, after one month) was 21% and the “Decrease in nocturnal diuresis” value ([1]; men, after two months) was 20%. For the same molecule, the Daytime diuresis ([1]; one month after treatment, both men and women) was “there remained a reduction”, the “Number of nocturnal micturitions” value ([1]; women versus men) was “women were affected most positively” and the Diuresis-day/night ([1]; women, 0 (before treatment)) was 0.84 ± 0.40. For the same molecule, the Diuresis-day ([1]; women, 0 (before treatment)) was 699 ± 368 mL, the Diuresis-night ([1]; women, 0 (before treatment)) was 892 ± 361 mL and the “Diuresis-day Deviation from initial value %” value ([1]; women, 1 month) was 6%. The Diuresis-day/night ([1]; women, 1 month) was 1.46 ± 0.87, the “Diuresis-night Deviation from initial value %” value ([1]; women, 1 month) was -36% and the Diuresis-day [1, 7] was 746 ± 368 mL. For the same molecule, the Diuresis-night [1, 7] was 570 ± 172 mL, the “Diuresis-day Deviation from initial value %” value ([1]; women, 2 months) was -4% and the Diuresis-day/night ([1]; women, 2 months) was 1.14 ± 0.36. For the same molecule, the “Diuresis-night Deviation from initial value %” value ([1]; women, 2 months) was -34%, the Diuresis-day [1, 8] was 673 ± 257 mL and the Diuresis-night [1, 8] was 592 mL. The “Diuresis-day Deviation from initial value %” value [1, 9] was -14%, the Diuresis-day/night [1, 9] was 0.89 ± 0.36 and the “Diuresis-night Deviation from initial value %” value [1, 9] was -17%. The Diuresis-day [1, 9] was 587 ± 173 mL, the Diuresis-night [1, 9] was 739 ± 260 mL and the “Decrease in nocturnal diuresis” value ([1]; women, after one month) was 36%. The “Decrease in nocturnal diuresis” value ([1]; women, after two months) was 34%, the “Less nocturnal diuresis than initial value” ([1]; women, one month after the last day of treatment) was 17% and the Tolerability ([2]; in vivo, po) was “well tolerated”. The “Duration of sleep between voids compared to placebo” value ([2]; oral tablets, titrated dose 0.1-0.4 mg, 14 days) was “significantly longer”, the “Nocturnal diuresis compared to placebo” value [2, 10] was “lower” and the “Nocturnal voids compared to placebo” value [2, 10] was “fewer”. The Nocturnal symptoms ([2]; oral tablets, elderly population) was “significantly decreases” and the Nocturnal diuresis [3] was “decreased”.
